Source: the supplement of paper PMC8671470

Assays:
Conditions in all cases: 72 h
BV-173 [1] = test system: BV-173
How it was run: (§1)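 Fifteen myeloid leukaemia cell lines were seeded in RPMI 1640 at densities titrated to the linear growth range and placed in 384-well plates with acoustically pre-printed compounds at five tenfold doses from 1 to 10,000 nM, in duplicate. After 72 h at 37 °C with 5% CO2, luminescent ATP viability was normalised to vehicle and to a positive control at 10 µM, and curves were fitted with a four-parameter log-logistic model. The IC50 was obtained from these fits.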

HEL [2] = test system: HEL
How it was run: as §1

HL-60 [3] = test system: HL-60
How it was run: as §1

K-562 [4] = test system: K-562
How it was run: as §1

KCL-22 [5] = test system: KCL-22
How it was run: as §1

KG-1 [6] = test system: KG-1
How it was run: as §1

KU-812 [7] = test system: KU-812
How it was run: as §1

LAMA-84 [8] = test system: LAMA-84
How it was run: as §1

ML-2 [9] = test system: ML-2
How it was run: as §1

MOLM-13 [10] = test system: MOLM-13
How it was run: as §1

MV4-11 [11] = test system: MV4-11
How it was run: as §1

Mono-Mac-6 [12] = test system: Mono-Mac-6
How it was run: as §1

NOMO-1 [13] = test system: NOMO-1
How it was run: as §1

SHI-1 [14] = test system: SHI-1
How it was run: as §1

THP-1 [15] = test system: THP-1
How it was run: as §1

BV-173 [16] = experiment: cell viability (% survival relative to DMSO control, bortezomib = 0%); higher = less cytotoxic
How it was run: (§2)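 After 72 h at 37 °C with 5% CO2, cell viability in 384-well plates was measured by CellTiter-Glo luminescence. The plates held compounds pre-printed at 1, 10, 100, 1000 or 10000 nM in duplicate, and cells from 10 AML and 5 CML lines seeded at densities titrated to linear growth. Percent survival is the duplicate mean, normalised to vehicle as 100% and a 10 µM positive control as 0%.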

HEL [17] = experiment: as above
How it was run: as §2

HL-60 [18] = experiment: as above
How it was run: as §2

K-562 [19] = experiment: as above
How it was run: as §2

KCL-22 [20] = experiment: as above
How it was run: as §2

KG-1 [21] = experiment: as above
How it was run: as §2

KU-812 [22] = experiment: as above
How it was run: as §2

LAMA-84 [23] = experiment: as above
How it was run: as §2

ML-2 [24] = experiment: as above
How it was run: as §2

MOLM-13 [25] = experiment: as above
How it was run: as §2

MV4-11 [26] = experiment: as above
How it was run: as §2

Mono-Mac-6 [27] = experiment: as above
How it was run: as §2

NOMO-1 [28] = experiment: as above
How it was run: as §2

SHI-1 [29] = experiment: as above
How it was run: as §2

THP-1 [30] = experiment: as above
How it was run: as §2

COC(=O)c1cc2c(C(F)(F)F)cc(-c3ccccc3)cc2n1O [NHI-2]
Conditions | IC50 (cell viability) [µM]
BV-173 [1] | > 10
HEL [2] | > 10
HL-60 [3] | > 10
K-562 [4] | > 10
KCL-22 [5] | > 10
KG-1 [6] | > 10
KU-812 [7] | > 10
LAMA-84 [8] | > 10
ML-2 [9] | > 10
MOLM-13 [10] | > 10
MV4-11 [11] | > 10
Mono-Mac-6 [12] | > 10
NOMO-1 [13] | > 10
SHI-1 [14] | > 10
THP-1 [15] | > 10

cell viability [%]
Conditions | 1 nM | 10 nM | 100 nM | 1000 nM | 10000 nM
BV-173 [16] | 100 | 100 | 101 | 73.7 | 94.2
HEL [17] | 83.5 | 91.9 | 90.4 | 89.4 | 92.5
HL-60 [18] | 98.5 | 90.3 | 95.2 | 97.2 | 96.8
K-562 [19] | 98.8 | 91.1 | 93.8 | 87.4 | 85.4
KCL-22 [20] | 91.9 | 88.8 | 104 | 110 | 92.7
KG-1 [21] | 97.6 | 90.8 | 100 | 85.9 | 97.7
KU-812 [22] | 97.6 | 96.9 | 97.7 | 96.8 | 84.3
LAMA-84 [23] | 91.9 | 95 | 93.9 | 87.5 | 76.4
ML-2 [24] | 94.8 | 95.1 | 109 | 102 | 107
MOLM-13 [25] | 87 | 80.6 | 91.3 | 95.6 | 105
MV4-11 [26] | 99.7 | 91.1 | 91.2 | 85.3 | 94.3
Mono-Mac-6 [27] | 93.6 | 102 | 114 | 89.5 | 103
NOMO-1 [28] | 101 | 102 | 92.2 | 97.4 | 102
SHI-1 [29] | 96.6 | 104 | 97.3 | 93.6 | 96.9
THP-1 [30] | 97.4 | 99.3 | 104 | 98.9 | 108

CCCCCCCC/C=C\CCCCCCCC(=O)Nc1ccccc1 [Octadec-9-Enoic Acid Phenylamide]
Conditions | IC50 (cell viability) [µM]
BV-173 [1] | > 10
HEL [2] | > 10
HL-60 [3] | > 10
K-562 [4] | > 10
KCL-22 [5] | > 10
KG-1 [6] | > 10
KU-812 [7] | > 10
LAMA-84 [8] | > 10
ML-2 [9] | > 10
MOLM-13 [10] | > 10
MV4-11 [11] | > 10
Mono-Mac-6 [12] | > 10
NOMO-1 [13] | > 10
SHI-1 [14] | > 10
THP-1 [15] | > 10

cell viability [%]
Conditions | 1 nM | 10 nM | 100 nM | 1000 nM | 10000 nM
BV-173 [16] | 98.4 | 94.8 | 99.7 | 100 | 95.7
HEL [17] | 104 | 92.9 | 92.3 | 106 | 104
HL-60 [18] | 96.1 | 105 | 113 | 100 | 124
K-562 [19] | 110 | 92.7 | 95.8 | 104 | 93.4
KCL-22 [20] | 103 | 95.7 | 99.5 | 103 | 96.6
KG-1 [21] | 107 | 96.9 | 99.9 | 99.2 | 97.4
KU-812 [22] | 100 | 96.3 | 95.6 | 96.8 | 108
LAMA-84 [23] | 107 | 97.8 | 101 | 103 | 99.4
ML-2 [24] | 113 | 105 | 99.9 | 103 | 108
MOLM-13 [25] | 106 | 90.3 | 91.1 | 98.3 | 108
MV4-11 [26] | 118 | 100 | 108 | 110 | 82.6
Mono-Mac-6 [27] | 97.1 | 103 | 108 | 99.5 | 101
NOMO-1 [28] | 97 | 97.1 | 97.1 | 99.2 | 99.6
SHI-1 [29] | 109 | 94.4 | 103 | 100 | 98
THP-1 [30] | 98.7 | 97.9 | 103 | 93.5 | 107
